The results in this text go back to US8993752B2, “Neprilysin inhibitors” (Theravance Biopharma R&D IP, LLC, priority 2011, dated 2015).

The target in this experiment is T1, human NEP (Homo sapiens, UniProt P08473).
T1 construct: purchased R&D Systems, Minneapolis, Minn; 1182-ZN
In words: In vitro enzyme inhibition assay at human NEP (fluorogenic peptide substrate). The format is biochemical. The following applies: recombinant human NEP; substrate Mca-D-Arg-Arg-Leu-Dap-(Dnp)-OH 10 μM; 37° C.; values given as ranges; read-out: pKi values at human NEP (converted). The method, then:
The inhibitory activities of compounds at human and rat neprilysin (EC 3.4.24.11; NEP) and human angiotensin converting enzyme (ACE) were determined using in vitro assays as described below.
Recombinant human NEP and recombinant human ACE were obtained commercially (R&D Systems, Minneapolis, Minn., catalog numbers 1182-ZN and 929-ZN, respectively). The fluorogenic peptide substrate Mca-D-Arg-Arg-Leu-Dap-(Dnp)-OH (Medeiros et al. (1997) Braz. J. Med. Biol. Res. 30:1157-62; Anaspec, San Jose, Calif.) and Abz-Phe-Arg-Lys(Dnp)-Pro-OH (Araujo et al. (2000) Biochemistry 39:8519-8525; Bachem, Torrance, Calif.) were used in the NEP and ACE assays respectively.
The assays were performed in 384-well white opaque plates at 37° C. using the fluorogenic peptide substrates at a concentration of 10 μM in Assay Buffer (NEP: 50 mM HEPES, pH 7.5, 100 mM NaCl, 0.01% polyethylene glycol sorbitan monolaurate (Tween-20), 10 μM ZnSO4; ACE: 50 mM HEPES, pH 7.5, 100 mM NaCl, 0.01% Tween-20, 1 μM ZnSO4).
Test compounds were assayed over the range of concentrations from 10 μM to 20 pM. Test compounds were added to the enzymes and incubated for 30 minute at 37° C. prior to initiating the reaction by the addition of substrate. Reactions were terminated after 20 minutes of incubation at 37° C. by the addition of glacial acetic acid to a final concentration of 3.6% (v/v).
Plates were read on a fluorometer with excitation and emission wavelengths set to 320 nm and 405 nm, respectively Inhibition constants were obtained by nonlinear regression of the data using the equation (GraphPad Software, Inc., San Diego, Calif.): v=v0/[1+(I/K′)] where v is the reaction rate, v0 is the uninhibited reaction rate, I is the inhibitor concentration and K′ is the apparent inhibition constant.
Compounds of the invention were tested in this assay and found to have pKi values at human NEP as follows.

T1 sequence (P08473 whole entry): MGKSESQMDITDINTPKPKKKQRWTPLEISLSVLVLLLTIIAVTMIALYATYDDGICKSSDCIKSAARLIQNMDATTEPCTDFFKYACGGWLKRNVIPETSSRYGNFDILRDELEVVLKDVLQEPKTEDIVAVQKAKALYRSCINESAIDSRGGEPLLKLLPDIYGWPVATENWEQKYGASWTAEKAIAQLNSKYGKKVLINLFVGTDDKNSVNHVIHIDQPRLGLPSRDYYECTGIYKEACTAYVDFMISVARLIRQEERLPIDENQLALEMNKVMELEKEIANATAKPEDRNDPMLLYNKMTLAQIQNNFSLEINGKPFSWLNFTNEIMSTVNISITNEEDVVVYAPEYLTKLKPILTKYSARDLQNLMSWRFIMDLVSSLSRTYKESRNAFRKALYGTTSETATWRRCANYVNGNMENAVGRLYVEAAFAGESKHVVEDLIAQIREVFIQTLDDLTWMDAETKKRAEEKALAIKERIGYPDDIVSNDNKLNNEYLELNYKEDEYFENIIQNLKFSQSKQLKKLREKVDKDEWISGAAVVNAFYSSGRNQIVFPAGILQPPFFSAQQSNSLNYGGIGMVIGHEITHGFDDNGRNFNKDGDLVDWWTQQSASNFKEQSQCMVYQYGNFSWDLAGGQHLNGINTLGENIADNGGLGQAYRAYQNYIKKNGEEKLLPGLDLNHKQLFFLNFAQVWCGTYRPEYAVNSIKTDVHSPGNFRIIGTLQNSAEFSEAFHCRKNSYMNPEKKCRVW

On to `COc1cccc(Cn2nc(C(=O)N[C@H](Cc3ccccc3Cl)[C@@H](O)C(=O)O)cc2C(=O)O)c1` [Example 2-11, 5-[(1R,2R)-2-Carboxy-1-(2-chloro-benzyl)-2-hydroxy-ethylcarbamoyl]-2-(3-methoxy-benzyl)-2H-pyrazole-3-carboxylic acid], for which the Ki was 1.26 to 10 nM.

Take `O=C(N[C@H](Cc1ccccc1)[C@@H](O)C(=O)O)c1cc(C(=O)N2CCOCC2)n(Cc2ccc(Cl)cc2)n1` [Example 8-18, (2R,3R)-3-{[1-(4-Chloro-benzyl)-5-(morpholine-4-carbonyl)-1H-pyrazole-3-carbonyl]-amino}-2-hydroxy-4-phenyl-butyric acid]: the Ki was 12.6 to 100 nM.

Regarding `COc1ccc(Cn2ccc(C(=O)N[C@H](Cc3ccccc3Cl)[C@@H](O)C(=O)O)n2)c(F)c1F` [Example 2-65, (2R,3R)-4-(2-Chloro-phenyl)-3-{[1-(2,3-difluoro-4-methoxy-benzyl)-1H-pyrazole-3-carbonyl]-amino}-2-hydroxy-butyric acid], the Ki was 1.26 to 10 nM.

As to `Cc1cccc(C)c1Cn1nc(C(=O)N[C@H](Cc2ccccc2Cl)[C@@H](O)C(=O)O)cc1C(=O)O` [Example 2-43, 5-[(1R,2R)-2-Carboxy-1-(2-chloro-benzyl)-2-hydroxy-ethylcarbamoyl]-2-(2,6-dimethyl-benzyl)-2H-pyrazole-3-carboxylic acid], the Ki is 1.26 to 10 nM.

Take `O=C(N[C@H](Cc1ccccc1Cl)[C@@H](O)C(=O)O)c1cc(C(=O)O)n(Cc2ccc(Cl)c(C(F)(F)F)c2)n1` [Example 2-18, 5-[(1R,2R)-2-Carboxy-1-(2-chloro-benzyl)-2-hydroxy-ethylcarbamoyl]-2-(4-chloro-3-trifluoromethyl-benzyl)-2H-pyrazole-3-carboxylic acid]: the Ki was 12.6 to 100 nM.

For the compound `COc1cccc(Cn2nc(C(=O)N[C@@H](CC(=O)O)Cc3ccccc3Cl)cc2C(=O)O)c1` [Example 11-1, 5-[(R)-2-Carboxy-1-(2-chloro-benzyl)-ethylcarbamoyl]-2-(3-methoxy-benzyl)-2H-pyrazole-3-carboxylic acid], the Ki is 12.6 to 100 nM.

Regarding `COc1ccc(Cn2nc(C(=O)N[C@H](Cc3ccccc3)[C@@H](O)C(=O)O)cc2C2CC2)c(F)c1F` [Example 8-21, (2R,3R)-3-{[5-Cyclopropyl-1-(2,3-difluoro-4-methoxy-benzyl)-1H-pyrazole-3-carbonyl]-amino}-2-hydroxy-4-phenyl-butyric acid], the Ki is 1.26 to 10 nM.

On to `COc1ccccc1-c1cc(C(=O)N[C@H](Cc2ccccc2Cl)[C@@H](O)C(=O)O)[nH]n1` [Example 3-4, (2R,3R)-4-(2-Chloro-phenyl)-2-hydroxy-3-{[5-(2-methoxy-phenyl)-2H-pyrazole-3-carbonyl]-amino}-butyric acid], for which the Ki is 12.6 to 100 nM.

For `O=C(N[C@H](Cc1ccccc1Cl)[C@@H](O)C(=O)O)c1cc(-c2cc(Cl)ccc2Cl)n[nH]1` [Example 3-7, (2R,3R)-4-(2-Chloro-phenyl)-3-{[5-(2,5-dichloro-phenyl)-2H-pyrazole-3-carbonyl]-amino}-2-hydroxy-butyric acid], the Ki is 1.26 to 10 nM.

`Cc1ccc(Cn2nc(C(=O)N[C@@H](CC(=O)O)Cc3ccccc3Cl)cc2C(=O)O)cc1` [Example 11-5, 5-[(R)-2-Carboxy-1-(2-chloro-benzyl)-ethylcarbamoyl]-2-(4-methyl-benzyl)-2H-pyrazole-3-carboxylic acid]: the Ki is 12.6 to 100 nM.

For `O=C(N[C@H](Cc1ccccc1Cl)[C@@H](O)C(=O)O)c1cc(C(=O)O)n(Cc2c(F)ccc(Cl)c2F)n1` [Example 2-14, 5-[(1R,2R)-2-Carboxy-1-(2-chloro-benzyl)-2-hydroxy-ethylcarbamoyl]-2-(3-chloro-2,6-difluoro-benzyl)-2H-pyrazole-3-carboxylic acid], the Ki was 1.26 to 10 nM.

With `O=C(N[C@H](Cc1ccccc1Cl)[C@@H](O)C(=O)O)c1cc(-c2ccc(F)cc2)n[nH]1` [Example 3-3, (2R,3R)-4-(2-Chloro-phenyl)-3-{[5-(4-fluoro-phenyl)-2H-pyrazole-3-carbonyl]-amino}-2-hydroxy-butyric acid], the Ki was 12.6 to 100 nM.

With `COc1ccc(Cn2nc(C(=O)N[C@@H](CC(=O)O)Cc3ccccc3Cl)cc2C(=O)O)cc1` [Example 11-2, 5-[(R)-2-Carboxy-1-(2-chloro-benzyl)-ethylcarbamoyl]-2-(4-methoxy-benzyl)-2H-pyrazole-3-carboxylic acid], the Ki is 12.6 to 100 nM.

For the compound `CN(C)C(=O)c1cc(C(=O)N[C@H](Cc2ccccc2)[C@@H](O)C(=O)O)nn1Cc1ccc(Cl)cc1` [Example 8-17, (2R,3R)-3-{[1-(4-Chloro-benzyl)-5-dimethylcarbamoyl-1H-pyrazole-3-carbonyl]-amino}-2-hydroxy-4-phenyl-butyric acid], the Ki is 12.6 to 100 nM.

As to `COc1ccc(Cn2cc(C(=O)N[C@H](Cc3ccccc3Cl)[C@@H](O)C(=O)O)cn2)c(F)c1F` [Example 4-1, (2R,3R)-4-(2-Chloro-phenyl)-3-{[1-(2,3-difluoro-4-methoxy-benzyl)-1H-pyrazole-4-carbonyl]-amino}-2-hydroxy-butyric acid], the Ki was 1.26 to 10 nM.

As to `O=C(N[C@H](Cc1ccccc1Cl)[C@@H](O)C(=O)O)c1cc(O)n(Cc2ccc(Cl)cc2F)n1` [Example 2-67, (2R,3R)-3-{[1-(4-Chloro-2-fluoro-benzyl)-5-hydroxy-1H-pyrazole-3-carbonyl]-amino}-4-(2-chloro-phenyl)-2-hydroxy-butyric acid], the Ki was 12.6 to 100 nM.

Turning to `O=C(N[C@H](Cc1ccccc1Cl)[C@@H](O)C(=O)O)c1cc(C(=O)O)n(Cc2ccccc2Cl)n1` [Example 2-19, 5-[(1R,2R)-2-Carboxy-1-(2-chloro-benzyl)-2-hydroxy-ethylcarbamoyl]-2-(2-chloro-benzyl)-2H-pyrazole-3-carboxylic acid], the Ki is 1.26 to 10 nM.

As for `O=C(N[C@H](Cc1ccccc1Cl)[C@@H](O)C(=O)O)c1cc(C(=O)O)n(Cc2cc(F)ccc2Cl)n1` [Example 2-15, 5-[(1R,2R)-2-Carboxy-1-(2-chloro-benzyl)-2-hydroxy-ethylcarbamoyl]-2-(2-chloro-5-fluoro-benzyl)-2H-pyrazole-3-carboxylic acid], the Ki was 1.26 to 10 nM.

On to `O=C(N[C@H](Cc1ccccc1Cl)[C@@H](O)C(=O)O)c1cc(C(=O)O)n(Cc2ccc(F)cc2)n1` [Example 2-20, 5-[(1R,2R)-2-Carboxy-1-(2-chloro-benzyl)-2-hydroxy-ethylcarbamoyl]-2-(4-fluoro-benzyl)-2H-pyrazole-3-carboxylic acid], for which the Ki is 1.26 to 10 nM.

For `COc1c(F)c(F)c(Cn2nc(C(=O)N[C@H](Cc3ccccc3)[C@@H](O)C(=O)O)cc2C2CC2)c(F)c1F` [Example 8-22, (2R,3R)-3-{[5-Cyclopropyl-1-(2,3,5,6-tetrafluoro-4-methoxy-benzyl)-1H-pyrazole-3-carbonyl]-amino}-2-hydroxy-4-phenyl-butyric acid], the Ki is ≤ 1 nM.

As for `O=C(N[C@H](Cc1ccccc1)[C@@H](O)C(=O)O)c1cc(C(=O)O)n(CCO)n1` [Example 8-14, 5-((1R,2R)-1-Benzyl-2-carboxy-2-hydroxy-ethylcarbamoyl)-2-(2-hydroxy-ethyl)-2H-pyrazole-3-carboxylic acid], the Ki is 12.6 to 100 nM.

Turning to `COc1cc(F)c(Cn2nc(C(=O)N[C@H](Cc3ccccc3Cl)[C@@H](O)C(=O)O)cc2C(=O)O)c(F)c1` [Example 2-32, 5-[(1R,2R)-2-Carboxy-1-(2-chloro-benzyl)-2-hydroxy-ethylcarbamoyl]-2-(2,6-difluoro-4-methoxy-benzyl)-2H-pyrazole-3-carboxylic acid], the Ki was ≤ 1 nM.

In the case of `CC(C)CN(C)C(=O)c1cc(C(=O)N[C@H](Cc2ccccc2Cl)[C@@H](O)C(=O)O)n[nH]1` [Example 2-56, (2R,3R)-4-(2-Chloro-phenyl)-2-hydroxy-3-{[5-(isobutyl-methyl-carbamoyl)-1H-pyrazole-3-carbonyl]-amino}-butyric acid], the Ki was 12.6 to 100 nM.

As for `O=C(N[C@H](Cc1ccccc1C(F)(F)F)[C@@H](O)C(=O)O)c1cc(C(=O)NCCc2c[nH]cn2)[nH]n1` [Example 6-4, (2R,3R)-2-Hydroxy-3-({5-[2-(1H-imidazol-4-yl)-ethylcarbamoyl]-1H-pyrazole-3-carbonyl}-amino)-4-(2-trifluoromethyl-phenyl)-butyric acid], the Ki was 12.6 to 100 nM.

For the compound `CNC(=O)c1cc(C(=O)N[C@H](Cc2ccccc2C(F)(F)F)[C@@H](O)C(=O)O)n[nH]1` [Example 6-5, (2R,3R)-2-Hydroxy-3-[(5-methylcarbamoyl-1H-pyrazole-3-carbonyl)-amino]-4-(2-trifluoromethyl-phenyl)-butyric acid], the Ki is 12.6 to 100 nM.
